Earlier results as cited in patent publication US9637723B2, “Generation of functional and durable endothelial cells from human amniotic fluid-derived cells” (Cornell University, priority 2012, dated 2017).
Like-named read-outs stand apart in the source and are kept apart here.

Target: T1, ALK5 (Homo sapiens, UniProt P36897)
T1 sequence (P36897 34-503): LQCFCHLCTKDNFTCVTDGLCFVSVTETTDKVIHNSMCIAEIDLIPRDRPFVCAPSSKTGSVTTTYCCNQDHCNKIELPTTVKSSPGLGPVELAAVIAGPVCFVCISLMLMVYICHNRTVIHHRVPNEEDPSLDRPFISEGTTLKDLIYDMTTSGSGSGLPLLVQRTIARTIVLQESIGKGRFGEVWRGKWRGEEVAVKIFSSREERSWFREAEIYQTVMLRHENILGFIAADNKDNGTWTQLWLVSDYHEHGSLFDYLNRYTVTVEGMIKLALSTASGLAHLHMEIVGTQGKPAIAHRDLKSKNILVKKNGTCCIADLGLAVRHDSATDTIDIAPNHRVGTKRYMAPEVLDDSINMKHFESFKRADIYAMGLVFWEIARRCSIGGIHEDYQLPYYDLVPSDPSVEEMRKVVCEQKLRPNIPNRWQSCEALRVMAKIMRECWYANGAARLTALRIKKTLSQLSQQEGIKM

[1] = as listed for compounds available through Tocris Bioscience

| Structure (SMILES) | Function [1] | Function |
| --- | --- | --- |
| Cc1cccc(-c2nn(C(=S)Nc3ccccc3)cc2-c2ccnc3ccccc23)n1 [A 83-01, 3-(6-Methyl-2-pyridinyl)-N-phenyl-4-(4-quinolinyl)-1H-pyrazole-1-carbothioamide] | (Selective inhibitor of ALK5, ALK4 and ALK7) |  |
| Cc1cccc(-c2n[nH]cc2-c2ccc3ncccc3n2)n1 [SJN 2511, 2-(3-(6-Methylpyridine-2-yl)-1H-pyrazol-4-yl)-1,5-naphthyridine] | (Selective inhibitor of ALK5) |  |
| c1ccc(-c2n[nH]cc2-c2ccnc3ccccc23)nc1 [LY 364947, 4-[3-(2-Pyridinyl)-1H-pyrazol-4-yl]-quinoline] |  | (Selective inhibitor of ALK5) |
